Where a name gives a salt, the structure may show the parent alone.
target: T1, Lp-PLA2 from plasma (Homo sapiens, UniProt Q13093); assay: Lp-PLA2 human plasma assay (Thio-PAF assay); format: biochemical; conditions: pooled human plasma; read-out: pIC50 values in the thio-PAF assay (converted)
T1 construct: from tissue; host or cells: pooled human plasma
T1 sequence (Q13093 22-441): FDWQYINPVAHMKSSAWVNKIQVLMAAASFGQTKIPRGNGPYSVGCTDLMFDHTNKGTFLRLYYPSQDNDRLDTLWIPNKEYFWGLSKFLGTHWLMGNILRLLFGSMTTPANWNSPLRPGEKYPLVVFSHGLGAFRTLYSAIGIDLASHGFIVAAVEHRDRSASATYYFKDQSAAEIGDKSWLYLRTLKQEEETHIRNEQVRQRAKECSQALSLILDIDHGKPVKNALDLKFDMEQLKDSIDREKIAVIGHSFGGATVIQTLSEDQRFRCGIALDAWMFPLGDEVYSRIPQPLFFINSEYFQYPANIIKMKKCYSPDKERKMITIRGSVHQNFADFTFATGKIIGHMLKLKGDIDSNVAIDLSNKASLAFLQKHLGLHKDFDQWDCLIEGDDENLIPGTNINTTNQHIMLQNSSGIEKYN
Source text: (3) Lipoprotein-Associated Phospholipase A2 (Lp-PLA2) Human Plasma Assay (Also Referred to as “Thio-PAF Assay”)
The human plasma assay utilizes a thioester analog of PAF (phosphatidylcholine), where hydrolysis yields to the formation of a phospholipid containing a free thiol group. The amount of thiol is quantitated continuously by reacting with CPM (7-diethylamino-3-(4′-maleimidylphenyl)-4-methylcoumarin), a maleimide which increases in fluoresence after Michael addition of thiols. This assay may detect the activity of Lp-PLA2 from plasma, as determined by specific inhibition by Lp-PLA2 inhibitors.
The thio-PAF assay was run as a quenched 15 μL assay. Compounds source plate was prepared by making 1:3 (by volume) serial dilution of the compounds into pure DMSO on 384-well microplate. 0.01 μL of compounds on compound source plate were transferred to 384 well Greiner 784076 (black) low-volume plates by ECHO liquid dispenser. 8 μL pooled human plasma, which was previously aliquoted and frozen, was added. Plates were centrifuged for 10 sec at 500 rpm. After 30 minutes preincubation, 2 μL of substrate (2.5 mM thio-PAF, 3.2 mM NEM (N-ethylmaleimide) [made fresh daily in DMSO], and 32 μM CPM [from a DMSO stock] in assay buffer of 50 mM HEPES, pH7.4, 150 mM NaCl, 1 mM CHAPS was added to 384 well Greiner 784076 (black) low-volume plates by BRAVO liquid handling station. Plates were centrifuged for 10 sec at 500 rpm. Plate was covered to protect from light and incubated for 2 min at room temperature. Reaction was quenched with 5 μL of 5% aqueous trifluoroacetic acid (TFA). Plates were covered to protect from light and incubated for 40 min at room temperature. Plates were read at ex: 380/em: 485 using-Envision microplate reader. PIC50 data, curve and QC analysis was conducted by using XLFit module in Excel.

| Structure (SMILES) | IC50 |
| --- | --- |
| Cn1cc(Cn2ccc(CCc3ccc(Oc4cccc(C(F)(F)F)c4)c(C#N)c3)nc2=O)cn1 [Example 20, 5-(2-{1-[(1-Methyl-1H-pyrazol-4-yl)methyl]-2-oxo-1,2-dihydro-4-pyrimidinyl}ethyl)-2-{[3-(trifluoromethyl)phenyl]oxy}benzonitrile] | ≤ 1 µM |
| Cn1cc(Cn2ccc(OCCc3ccc(Oc4ccc(Cl)c(C(F)(F)F)c4)cc3)cc2=O)cn1 [Example 24, 4-{[2-(4-{[4-Chloro-3-(trifluoromethyl)phenyl]oxy}phenyl)ethyl]oxy}-1-[(1-methyl-1H-pyrazol-4-yl)methyl]-2(1H)-pyridinone] | ≤ 1 µM |
| O=c1nc(OCc2ccc(Oc3ccc(Cl)c(C(F)(F)F)c3)cn2)ccn1Cc1cccnc1 [Example 14, 4{[(5-{[4-Chloro-3-(trifluoromethyl)phenyl]oxy}-2-pyridinyl)methyl]oxy}-1-(3-pyridinylmethyl)-2(1H)-pyrimidinone] | ≤ 0.1 µM |
| COc1ncc(Cn2cc(F)c(OCCc3ccc(Oc4cccc(C(F)(F)F)n4)cc3)nc2=O)cn1 [Example 65, 5-fluoro-1-((2-methoxypyrimidin-5-yl)methyl)-4-(4-((6-(trifluoromethyl)pyridin-2-yl)oxy)phenethoxy)pyrimidin-2(1H)-one] | ≤ 1 µM |
| N#Cc1cc(CCOc2ccn(Cc3cccnc3)c(=O)n2)ccc1Oc1ccc(Cl)c(C(F)(F)F)c1 [Example 7, 2-{[4-Chloro-3-(trifluoromethyl)phenyl]oxy}-5-(2-{[2-oxo-1-(3-pyridinylmethyl)-1,2-dihydro-4-pyrimidinyl]oxy}ethyl)benzonitrile trifluoroacetate] | ≤ 0.1 µM |
| Cn1cc(Cn2ccc(OCCc3ccc(Oc4ccc(Cl)c(C(F)(F)F)c4)cn3)nc2=O)cn1 [Example 16, 4-{[2-(5-{[4-Chloro-3-(trifluoromethyl)phenyl]oxy}-2-pyridinyl)ethyl]oxy}-1-[(1-methyl-1H-pyrazol-4-yl)methyl]-2(1H)-pyrimidinone] | ≤ 0.1 µM |
| O=c1nc(OCCc2ccc(Oc3ccc(Cl)c(C(F)(F)F)c3)cc2)ccn1CCc1cccnc1 [Example 13, 4-{[2-(4-{[4-Chloro-3-(trifluoromethyl)phenyl]oxy}phenyl)ethyl]oxy}-1-[2-(3-pyridinyl)ethyl]-2 (1H)-pyrimidinone trifluoroacetate] | ≤ 1 µM |
| N#Cc1cc(CNc2ccn(Cc3cccnc3)c(=O)n2)ccc1Oc1ccc(Cl)c(C(F)(F)F)c1 [Example 19, 2-{[4-Chloro-3-(trifluoromethyl)phenyl]oxy}-5-({[2-oxo-1-(3-pyridinylmethyl)-1,2-dihydro-4-pyrimidinyl]amino}methyl)benzonitrile] | ≤ 0.1 µM |
| N#Cc1cc(COc2cc[nH]c(=O)n2)ccc1Oc1ccc(Cl)c(C(F)(F)F)c1 [Example 3, 2-(4-Chloro-3-(trifluoromethyl)phenoxy)-5-(((2-oxo-2,3-dihydropyrimidin-4-yl)oxy)methyl)benzonitrile] | > 10 µM |
| Cn1cc(Cn2ccc(OCc3ccc(Oc4ccc(Cl)c(C(F)(F)F)c4)cn3)nc2=O)cn1 [Example 15, 4-{[(5-{[4-Chloro-3-(trifluoromethyl)phenyl]oxy}-2-pyridinyl)methyl]oxy}-1-[(1-methyl-1H-pyrazol-4-yl)methyl]-2(1H)-pyrimidinone] | ≤ 0.1 µM |
| Cn1cc(Cn2cc(F)c(OCCc3ccc(Oc4cccc(C(F)(F)F)n4)cc3)nc2=O)cn1 [Example 64, 5-fluoro-1-((1-methyl-1H-pyrazol-4-yl)methyl)-4-(4-((6-(trifluoromethyl)pyridin-2-yl)oxy)phenethoxy)pyrimidin-2(1H)-one] | ≤ 1 µM |
| COc1ncc(Cn2cc(Cl)c(OCc3ccc(Oc4ccc(F)c(F)c4)c(F)c3)nc2=O)cn1 [Example 54, 5-chloro-4-((4-(3,4-difluorophenoxy)-3-fluorobenzyl)oxy)-1-((2-methoxypyrimidin-5-yl)methyl)pyrimidin-2(1H)-one] | ≤ 0.1 µM |
| N#Cc1cc(COc2ccn(Cc3ccncc3)c(=O)n2)ccc1Oc1ccc(Cl)c(C(F)(F)F)c1 [Example 2, 2-{[4-Chloro-3-(trifluoromethyl)phenyl]oxy}-5-({[2-oxo-1-(4-pyridinylmethyl)-1,2-dihydro-4-pyrimidinyl]oxy}methyl)benzonitrile trifluoroacetate] | ≤ 0.1 µM |
| Cn1cc(Cn2ccc(OCc3ccc(Oc4ccc(Cl)c(C(F)(F)F)c4)c(C#N)c3)cc2=O)cn1 [Example 22, 2-{[4-Chloro-3-(trifluoromethyl)phenyl]oxy}-5-[({1-[(1-methyl-1H-pyrazol-4-yl)methyl]-2-oxo-1,2-dihydro-4-pyridinyl}oxy)methyl]benzonitrile] | ≤ 1 µM |
| Cn1cc(Cn2ccc(OCc3ccc(Oc4ccc(Cl)c(C(F)(F)F)c4)c(C#N)c3)nc2=O)cn1 [Example 6, 2-{[4-Chloro-3-(trifluoromethyl)phenyl]oxy}-5-[({1-[(1-methyl-1H-pyrazol-4-yl)methyl]-2-oxo-1,2-dihydro-4-pyrimidinyl}oxy)methyl]benzonitrile] | ≤ 0.1 µM |

Now from value to compound:

| IC50 | Structure (SMILES) |
| --- | --- |
| ≤ 0.1 µM | Cn1cc(Cn2cc(Cl)c(OCCc3ccc(Oc4ccc(Cl)c(C(F)(F)F)c4)cc3)nc2=O)cn1 [Example 30, 5-chloro-4-{[2-(4-{[4-Chloro-3-(trifluoromethyl)phenyl]oxy}phenyl)ethyl]oxy}-1-[(1-methyl-1H-pyrazol-4-yl)methyl]-2(1H)-pyrimidinone] |
| ≤ 0.1 µM | COc1ncc(Cn2cc(F)c(OCCc3cnc(Oc4ccc(Cl)c(C(F)(F)F)c4)c(F)c3)nc2=O)cn1 [Example 34, 4-(2-(6-(4-chloro-3-(trifluoromethyl)phenoxy)-5-fluoropyridin-3-yl)ethoxy)-5-fluoro-1-((2-methoxypyrimidin-5-yl)methyl)pyrimidin-2(1H)-one] |
| ≤ 0.1 µM | Cn1cc(Cn2cc(F)c(OCCc3ccc(Oc4ccc(Cl)c(C(F)(F)F)c4)nc3)nc2=O)cn1 [Example 40, 4-(2-(6-(4-chloro-3-(trifluoromethyl)phenoxy)pyridin-3-yl)ethoxy)-5-fluoro-1-((1-methyl-1H-pyrazol-4-yl)methyl)pyrimidin-2(1H)-one] |
| ≤ 0.1 µM | Cn1cc(Cn2cc(F)c(OCCc3cnc(Oc4ccc(F)c(C(F)(F)F)c4)c(F)c3)nc2=O)cn1 [Example 42, 5-fluoro-4-(2-(5-fluoro-6-(4-fluoro-3-(trifluoromethyl)phenoxy)pyridin-3-yl)ethoxy)-1-((1-methyl-1H-pyrazol-4-yl)methyl)pyrimidin-2(1H)-one] |
| ≤ 0.1 µM | Cn1cc(Cn2cc(Cl)c(OCCc3cnc(Oc4ccc(F)c(C(F)(F)F)c4)c(F)c3)nc2=O)cn1 [Example 38, 5-chloro-4-(2-(5-fluoro-6-(4-fluoro-3-(trifluoromethyl)phenoxy)pyridin-3-yl)ethoxy)-1-((1-methyl-1H-pyrazol-4-yl)methyl)pyrimidin-2(1H)-one] |
| ≤ 0.1 µM | Cn1cc(Cn2cc(F)c(OCCc3ccc(Oc4ccc(F)c(C(F)(F)F)c4)nc3)nc2=O)cn1 [Example 39, 5-fluoro-4-(2-(6-(4-fluoro-3-(trifluoromethyl)phenoxy)pyridin-3-yl)ethoxy)-1-((1-methyl-1H-pyrazol-4-yl)methyl)pyrimidin-2(1H)-one] |
| ≤ 0.1 µM | Cn1cc(Cn2cc(F)c(OCCc3ccc(Oc4ccc(Cl)c(C(F)(F)F)c4)cc3)nc2=O)cn1 [Example 29, 4-{[2-(4-{[4-Chloro-3-(trifluoromethyl)phenyl]oxy}phenyl)ethyl]oxy}-5-fluoro-1-[(1-methyl-1H-pyrazol-4-yl)methyl]-2(1H)-pyrimidinone] |
| ≤ 0.1 µM | COc1ncc(Cn2cc(F)c(OCCc3cnc(Oc4ccc(F)c(C(F)(F)F)c4)c(F)c3)nc2=O)cn1 [Example 43, 5-fluoro-4-(2-(5-fluoro-6-(4-fluoro-3-(trifluoromethyl)phenoxy)pyridin-3-yl)ethoxy)-1-((2-methoxypyrimidin-5-yl)methyl)pyrimidin-2(1H)-one] |
| ≤ 0.1 µM | COc1ncc(Cn2cc(F)c(OCCc3ccc(Oc4ccc(Cl)c(C(F)(F)F)c4)cc3)nc2=O)cn1 [Example 36, 4-(4-(4-chloro-3-(trifluoromethyl)phenoxy)phenethoxy)-5-fluoro-1-((2-methoxypyrimidin-5-yl)methyl)pyrimidin-2(1H)-one] |
| ≤ 0.1 µM | Cn1cc(Cn2cc(F)c(OCCc3ccc(Oc4ccc(Cl)c(C(F)(F)F)c4)cn3)nc2=O)cn1 [Example 55, 4-(2-(5-(4-chloro-3-(trifluoromethyl)phenoxy)pyridin-2-yl)ethoxy)-5-fluoro-1-((1-methyl-1H-pyrazol-4-yl)methyl)pyrimidin-2(1H)-one] |
